Source: patent US7288562B2, “Fluoro and sulphonylamino containing 3,6-disubstituted azabicyclo (3.1.0) hexane derivatives as muscarinic receptor antagonists” (priority 2002, dated 2007)
Like-named read-outs stand apart in the source and are kept apart here.

What was measured:
[1] = system: isolated rat bladder; experiment: Functional experiments using isolated rat bladder (carbachol-induced contraction); conditions: isolated rat bladder strips, carbachol concentration response curve
Protocol: Functional Experiments Using Isolated Rat Bladder:
Animals were euthanized by overdose of urethane and whole bladder was isolated and removed rapidly and placed in ice cold Tyrode buffer with the following composition (mMol/L) NaCl 137; KCl 2.7; CaCl2 1.8; MgCl2 0.1; NaHCO3 11.9; NaH2PO4 0.4; Glucose 5.55 and continuously gassed with 95% O2 and 5% CO2.
The bladder was cut into longitudinal strips (3 mm wide and 5-6 mm long) and mounted in 10 ml organ baths at 30° C., with one end connected to the base of the tissue holder and the other end connected to a polygraph through a force displacement transducer. Each tissue was maintained at a constant basal tension of 2 g and allowed to equilibrate for 1 hour during which the PSS was changed every 15 min. At the end of equilibration period the stabilization of the tissue contractile response was assessed with 1 μmol/L of Carbachol consecutively for 2-3 times. Subsequently a cumulative concentration response curve to carbachol (10^−9 mol/L to 3×10^−5 mol/L) was obtained. After several washes, once the baseline was achieved, cumulative concentration response curve was obtained in presence of NCE (NCE added 20 min. prior to the second CRC).
The contractile results were expressed as % of control E max. ED50 values were calculated by fitting a non-linear regression curve (Graph Pad Prism). pKB values were calculated by the formula pKB=−log [(molar concentration of antagonist/(dose ratio-1))]
• dose ratio=ED50 in the presence of antagonist/ED50 in the absence of antagonist.

[2] = molecular target: T1, M2 muscarinic receptor (Rattus norvegicus, UniProt P10980); experiment: Radioligand binding assay, [3H]-N-methylscopolamine, rat heart membranes; conditions: [3H]-NMS
T1 construct: from tissue; host or cells: rat heart membrane homogenate
T1 sequence (P10980 1-466): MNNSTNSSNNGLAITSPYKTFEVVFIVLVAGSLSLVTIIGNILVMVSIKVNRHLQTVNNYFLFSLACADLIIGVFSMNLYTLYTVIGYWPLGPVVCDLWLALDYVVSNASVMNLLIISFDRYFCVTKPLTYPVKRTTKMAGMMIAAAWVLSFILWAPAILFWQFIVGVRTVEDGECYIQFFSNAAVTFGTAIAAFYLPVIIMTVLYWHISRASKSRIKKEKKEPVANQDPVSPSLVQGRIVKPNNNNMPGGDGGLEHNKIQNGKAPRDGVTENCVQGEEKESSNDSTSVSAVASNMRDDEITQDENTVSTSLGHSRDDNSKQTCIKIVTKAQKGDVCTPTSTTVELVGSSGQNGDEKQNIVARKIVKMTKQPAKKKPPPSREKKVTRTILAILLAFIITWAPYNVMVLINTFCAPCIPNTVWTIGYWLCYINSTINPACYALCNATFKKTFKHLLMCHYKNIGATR
Protocol: (§1) The affinity of test compounds for M2 and M3 muscarinic receptor subtypes was determined by [^3H]-N-methylscopolamine binding studies using rat heart and submandibular gland respectively as described by Moriya et al., (Life Sci, 1999, 64(25):2351-2358) with minor modifications.
(§2) Membrane preparation: Submandibular glands and heart were isolated and placed in ice cold homogenising buffer (HEPES 20 mM, 10 mM EDTA, pH 7.4) immediately after sacrifice. The tissues were homogenised in 10 volumes of homogenising buffer and the homogenate was filtered through two layers of wet gauze and filtrate was centrifuged at 500 g for 10 min. The supernatant was subsequently centrifuged at 40,000 g for 20 min. The pellet thus obtained was resuspended in same volume of assay buffer (HEPES 20 mM, EDTA 5 mM, pH 7.4) and were stored at −70° C. until the time of assay.
(§3) Ligand binding assay: The compounds were dissolved and diluted in DMSO. The membrane homogenates (150-250 μg protein) were incubated in 250 μl of assay buffer (HEPES 20 mM, pH 7.4) at 24-25° C. for 3 h. Non-specific binding was determined in the presence of 1 μM atropine. The incubation was terminated by vacuum filtration over GF/B fiber filters(Wallac). The filters were then washed with ice cold 50 mM Tris HCl buffer (pH 7.4). The filter mats were dried and bound radioactivity retained on filters was counted. The IC50 & Kd were estimated by using the non-linear curve fitting program using G Pad Prism software. The value of inhibition constant Ki was calculated from competitive binding studies by using Cheng & Prusoff equation (Biochem Pharmacol, 1973, 22: 3099-3108), Ki=IC50/(1+L/Kd), where L is the concentration of
(§4) [^3H]NMS used in the particular experiment.

[3] = molecular target: T2, M3 muscarinic receptor (Rattus norvegicus, UniProt P08483); experiment: Radioligand binding assay, [3H]-N-methylscopolamine, rat submandibular gland membranes; conditions: [3H]-NMS
T2 construct: from tissue; host or cells: rat submandibular gland membrane homogenate
Protocol: as §1, §2, §3, §4

[4] = read-out: Receptor Binding Assay M2 pKi (converted)
[5] = read-out: Receptor Binding Assay M3 pKi (converted)

T2 sequence (P08483 whole entry): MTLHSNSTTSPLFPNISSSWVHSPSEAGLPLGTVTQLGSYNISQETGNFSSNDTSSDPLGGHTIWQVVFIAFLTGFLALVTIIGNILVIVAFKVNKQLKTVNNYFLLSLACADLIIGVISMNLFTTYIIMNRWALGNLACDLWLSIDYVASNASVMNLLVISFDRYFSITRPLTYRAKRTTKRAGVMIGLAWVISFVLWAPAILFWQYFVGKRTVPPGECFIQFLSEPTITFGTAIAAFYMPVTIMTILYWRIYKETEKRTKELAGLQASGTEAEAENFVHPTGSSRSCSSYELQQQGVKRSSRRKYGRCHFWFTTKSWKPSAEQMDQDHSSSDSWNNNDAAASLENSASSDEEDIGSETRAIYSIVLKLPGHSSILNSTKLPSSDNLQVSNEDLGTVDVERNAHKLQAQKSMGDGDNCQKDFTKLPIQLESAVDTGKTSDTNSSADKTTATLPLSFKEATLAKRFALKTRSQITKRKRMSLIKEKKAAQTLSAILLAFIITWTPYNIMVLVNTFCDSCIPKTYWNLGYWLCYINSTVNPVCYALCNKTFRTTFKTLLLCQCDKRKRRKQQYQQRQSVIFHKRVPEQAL

SMILES	Functional Assay pKB [1]	Ki [2, 4]	Ki [3, 5]	Ki ([2]; Receptor Binding Assay M2 pKi)	Ki ([3]; Receptor Binding Assay M3 pKi)
O=C(NCC1C2CN(Cc3ccccc3)CC12)C(O)(c1ccccc1)C1CCC(F)(F)C1 (mixture of isomers) [Compound No. 3, (2Ror 2S)-(1α,5α,6α)-N-[3-benzyl-3-azabicyclo[3.1.0]hexyl-6-(aminomethyl)-yl]-2-[(1R or 1S)-3,3-difluorocyclopentyl]-2-hydroxy-2-phenyl acetamide]	8.55 ± 0.25	0.251 µM	0.00631 µM		
O=C(NC[C@@H]1[C@H]2CN(Cc3ccccc3)C[C@@H]12)[C@](O)(c1ccccc1)C1CCC(F)(F)C1 (single isomer, unassigned) [Compound No. 1A, (2R)-(1α,5α,6α)-N-[3-benzyl-3-azabicyclo[3.1.0]hexyl-6-(aminomethyl)-yl]-2-[(1R or 1S)-3,3-difluorocyclopentyl]-2-hydroxy-2-phenylacetamide]	9.1 ± 0.2	0.135 µM	0.00562 µM		
O=C(NC[C@@H]1[C@H]2CN(Cc3ccccc3)C[C@@H]12)[C@](O)(c1ccccc1)C1CCC(F)(F)C1 (single isomer, unassigned) [Compound No. 1B, (2R)-(1α,5α,6α)-N-[3-benzyl-3-azabicyclo[3.1.0]hexyl-6-(aminomethyl)-yl]-2-[(1R or 1S)-3,3-difluorocyclopentyl]-2-hydroxy-2-phenylacetamide]	8.98 ± 0.06	0.229 µM	0.00617 µM		
O=C(NCC1C2CN(Cc3ccccc3)CC12)C(O)(c1ccccc1)C1CCC(F)C1 (single isomer, unassigned) [Compound No. 4, (2R or 2S)-(1α,5α,6α)-N-[3-benzyl-3-azabicyclo[3.1.0]hexyl-6-(aminomethyl)-yl]-2-[(1R or 1S, 3R or 3S)-3-fluorocyclopentyl]-2-hydroxy-2-phenyl acetamide]	8.33 ± 0.15	0.138 µM	0.00589 µM		
O=C(NCC1C2CN(Cc3ccccc3)CC12)C(O)(c1ccccc1)C1CCC(NS(=O)(=O)c2ccc([N+](=O)[O-])cc2)C1 (single isomer, unassigned) [Compound No. 6, (2R)-(1α,5α,6α)-N-[3-benzyl-3-azabicyclo[3.1.0]hexyl-6-(aminomethyl)-yl]-2-[(1R or 1S, 3R or 3S)-3-(4-nitrophenyl)sulphonylaminocyclopentyl]-2-hydroxy-2-phenylacetamide]	7.21 ± 0.20			> 1.58 µM	0.0219 µM
O=C(COCc1ccccc1)NC1CCC(C(O)(C(=O)NCC2C3CN(Cc4ccccc4)CC23)c2ccccc2)C1 (single isomer, unassigned) [Compound No. 8, (2R)-(1α,5α,6α)-N-[3-benzyl-3-azabicyclo[3.1.0]hexyl-6-(aminomethyl)-yl]-2-[(1R or 1S, 3R or 3S)-3-benzyloxyacetylaminocyclopentyl]-2-hydroxy-2-phenylacetamide]	7.08 ± 0.18	0.209 µM	0.0347 µM		
O=C(NC[C@@H]1[C@H]2CN(Cc3ccccc3)C[C@@H]12)[C@](O)(c1ccccc1)C1CCC(F)C1 (stereo partly drawn) [Compound No. 2, (2R(1α,5α,6α)-N-[3-benzyl-3-azabicyclo[3.1.0]hexyl-6-(aminomethyl)-yl]-2-[(1R or 1S, 3R or 3S)-3-fluorocyclopentyl]-2-hydroxy-2-phenylacetamide]	8.84 ± 0.07	0.126 µM	0.00398 µM		
O=C(Cc1ccccc1)NC1CCC([C@](O)(C(=O)NC[C@@H]2[C@H]3CN(Cc4ccccc4)C[C@@H]23)c2ccccc2)C1 (stereo partly drawn) [Compound No. 5, (2R)-(1α,5α,6α)-N-[3-benzyl-3-azabicyclo[3.1.0]hexyl-6-(aminomethyl)-yl]-2-[(1R or 1S, 3R or 3S)-3-phenylacetylaminocyclopentyl]-2-hydroxy-2-phenylacetamide]	7.07 ± 0.11	0.832 µM	0.0398 µM		
O=C(NC[C@@H]1[C@H]2CN(Cc3ccccc3)C[C@@H]12)[C@](O)(c1ccccc1)C1CCC(NS(=O)(=O)c2ccccc2)C1 (stereo partly drawn) [Compound No. 7, (2R)-(1α,5α,6α)-N-[3-benzyl-3-azabicyclo[3.1.0]hexyl-6-(aminomethyl)-yl]-2-[(1R or 1S, 3R or 3S)-3-phenylsulphonylaminocyclopentyl]-2-hydroxy-2-phenylacetamide]	6.89 ± 0.29			> 1.58 µM	0.0501 µM
COc1ccc(S(=O)(=O)NC2CCC([C@](O)(C(=O)NC[C@@H]3[C@H]4CN(Cc5ccccc5)C[C@@H]34)c3ccccc3)C2)cc1 (stereo partly drawn) [Compound No. 9, (2R)-(1α,5α,6α)-N-[3-benzyl-3-azabicyclo[3.1.0]hexyl-6-(aminomethyl)-yl]-2-[(1R or 1S, 3R or 3S)-3-(4-methoxyphenyl)sulphonylaminocyclopentyl]-2-hydroxy-2-phenylacetamide]				> 1 µM	0.204 µM
O=C(NC[C@@H]1[C@H]2CN(Cc3ccccc3)C[C@@H]12)[C@](O)(c1ccccc1)C1CCC(NS(=O)(=O)c2ccc(Br)cc2)C1 (stereo partly drawn) [Compound No. 10, (2R)-(1α,5α,6α)-N-[3-benzyl-3-azabicyclo[3.1.0]hexyl-6-(aminomethyl)-yl]-2-[(1R or 1S, 3R or 3S)-3-(4-bromophenyl)sulphonylaminocyclopentyl]-2-hydroxy-2-phenylacetamide]				> 1 µM	0.129 µM
